Experiment [1] deals with germline ε promoter. Put plainly: Functional profile of BR10A1 wt and mutants in the A5T4 reporter cell line. Type of experiment: cell-based, human. The conditions noted are these: for Reporter Ratio: A5T4 reporter line; for functional category as compared to the activity of the wild type peptide: based on reporter ratio, % change calculated after subtracting 1.0 from the ratios. As for the experimental part: Following infection, the library was enriched for cells expressing peptides that inhibit IL-4 induced ε transcription as generally outlined in the top half of FIG. 3 and sorted by FACS into single cell clones. The clones were then screened as generally illustrated in the lower half of FIG. 3. Briefly, for screening, each clone was divided into two populations and one population was treated with Dox (10 ng/ml). After 5 days, both populations were stimulated with IL-4 (final conc. 60 U/mL; PeptroTech, Inc.) and, after 3 more days, both populations were analyzed by FACS to measure BFP and GFP fluorescence. FACS data were converted to a “reporter ratio”, which is defined for this purpose as the ratio of the geometric mean of GFP fluorescence of the +IL-4/+Dox to the +IL-4/−Dox populations. Cells expressing a peptide that inhibits germline ε transcription have a reporter ratio of ≧1.1. A reporter ratio of ≧1.2 is indicative of strong inhibition.
The ability of peptide BR10A1 wt to inhibit germline ε transcription was confirmed in naive cells. Briefly, Phoenix cells were transfected with a retroviral vector encoding a BFP-BR10A1 wt peptide fusion as described in WO 99/58663 and WO 97/27213. Naïve A5T4 cells were infected with the resultant virions and grown for 3 days. The infected cells were stimulated with IL-4 (60 U/mL) and, after 3 days, the cells were assessed by FACS for BFP and GFP. […] The BFP fluorescence data corresponding to the BFP^+ and BFP^− populations are provided in Panel A. The GFP fluorescence data corresponding to the BFP^+ and BFP^− populations are presented in Panel B. The reporter ratio for this purpose is determined as the geometric mean of the GFP fluorescence of the BFP^− population divided by the geometric mean of the GFP fluorescence of the BFP^+ population. The reporter ratio for the BR10A1 in this re-infection assay was 1.27.
A collection of BR10A1 mutants was generated by replacing single or double amino acid residues in the sequence of BR10A1 wt with a different amino acid, typically an alanine or glycine, as described in copending application Ser. No.10/095,659, entitled Methods of Identifying Protein Targets, filed Mar. 8, 2002 . The functional profiles for the mutants derived from BR10A1 wt was obtained by constructing and screening for activity in the A5T4 reporter cell line in the manner described above. The activity of each mutant at the germline ε promoter is reflected in the reporter ratio as described above. The reporter ratios were the functional values that were used to develop the functional profiles. Measurement of the reporter ratios of the mutant peptides was carried out in a number of separate experiments, each time comparing the value of cells transfected with mutant peptide to that of cells transfected with control WT peptide done at the same time. The reporter ratios of the control WT peptide can vary depending upon a number of factors including the infectivity or the state of the infected cells at the time of infection.
TABLE 2 depicts the amino acid sequences (the dual alanine mutations are underlined) of the mutants tested and the measured reporter ratios when screening in the A5T4 reporter line.
Comparison of the interaction and functional profiles was performed by categorizing the mutants of BR10A1 based on the functional and interaction assays. Based on the reporter ratio, each mutant was categorized into one of four functional categories: (1) reduction of function (ROF); (2) loss of function (LOF); (3) increase of function (IOF) or (4) functionally neutral (N) as compared to the activity of the wild type peptide, here BR10A1 wt. As mentioned previously, cells expressing a peptide that inhibits germline ε transcription have reporter ratios of ≧1.1. Cells expressing a loss of function (LOF) mutant have a reporter ratio of <1.11. […] Functionally neutral mutants have reporter ratios that fall within ±50% of that of the BR10A1 wt peptide. […]

In experiment [2] the target is T1, human c-Myc protein (Homo sapiens, UniProt P01106).
T1 construct: expressed in transfected cells; prey cDNA library made from the A5T4 reporter line (human BJAB B-cells)
Put plainly: Yeast two hybrid (YTH) interaction assay, β-galactosidase. Type of experiment: binding. As for the experimental part:
Potential binding partners for peptide BR10A1 wt were identified in a β-galactosidase yeast two-hybrid (YTH) assay using peptide BR10A1 wt as bait and a cDNA library constructed from the A5T4 reporter cell line as prey. Binding was assessed by β-galactosidase quantification using BetaFluor (Novagen) as a substrate. A negative interaction control (no cDNA fused downstream of the GAL4 activation domain sequence) was also run. A general outline of the YTH assay is illustrated in FIG. 5A. Following clustering, filtering to remove non-specific bait hits (e.g., GFP and BFP), singletons and clusters recognized by 10 or more cDNA baits (based upon historical YTH assays), and prioritization, 30 prey clones were identified as hits.
Potential targets identified in the YTH assay were reconfirmed as generally outlined in FIG. 6. The cDNA clones identified as hits in the YTH assay were purified and rescreened for interaction with the BR10A1 wt peptide in a YTH assay. The hit clones were also screened in a control assay for interaction with the BFP using a vector (pGBKT7) that contained only the BFP and not the BR10A1 peptide. At this stage, 25 putative target clones remained.
The interaction of BR10A1 wt peptide and its mutants with the clones identified as potential targets for the peptide BR10A1 wt was then quantified in a β-galactosidase YTH assay. The YTH assay was performed in the manner described above. A general outline of this YTH assay is illustrated in FIG. 5B. For each clone tested, an interaction profile was developed by comparing the β-galactosidase activity of each mutant to that of the wild type peptide as described above.
The interaction of selected IOF, ROF and LOF mutants with different polypeptides encoded by the putative target clones were quantified using the YTH assay described above. Based on the YTH assay, for each putative target, the mutants were categorized into the following four interaction categories: (1) reduction of interaction (ROI); (2) loss of interaction (LOI); (3) increase of interaction (IOI); and (4) interactionally neutral (N), by assessing the binding affinity ratio of the mutant peptide and the wild type peptide (β-gal activity of mutant/wild type) to the putative target. The selection criteria for categorizing the interactions is shown on FIG. 8.

The mark [3] stands for this setting: separate experiment with its own WT control.
Setting [4] is: second value column (separate experiment with its own WT control).

Several values for one entry are separate records, joined by “and”; a condition that tells them apart may be missing. Equal entries are not always repeated.

T1 sequence (P01106 whole entry): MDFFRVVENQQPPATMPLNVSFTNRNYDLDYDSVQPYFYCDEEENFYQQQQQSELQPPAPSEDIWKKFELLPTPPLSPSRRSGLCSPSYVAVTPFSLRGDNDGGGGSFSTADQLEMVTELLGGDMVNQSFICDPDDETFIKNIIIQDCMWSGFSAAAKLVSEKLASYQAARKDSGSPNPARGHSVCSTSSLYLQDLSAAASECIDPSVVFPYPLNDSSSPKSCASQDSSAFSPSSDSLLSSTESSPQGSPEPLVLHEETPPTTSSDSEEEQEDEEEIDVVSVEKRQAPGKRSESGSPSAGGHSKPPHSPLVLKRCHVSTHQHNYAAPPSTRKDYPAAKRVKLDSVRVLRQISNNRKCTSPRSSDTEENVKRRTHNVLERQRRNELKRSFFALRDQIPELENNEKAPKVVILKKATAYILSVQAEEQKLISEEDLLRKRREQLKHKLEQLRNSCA

“MQRRESAATRSVEEAAGLFYLGP (peptide encoded by random oligo-BR10A1CIGW) [mutant of BR10A1 wt with alanines at CI and GW]”: in experiment [1] (fourth value column (separate experiment with its own WT control)), the “Reporter Ratio” value is 1.08 and 1.15. For the same sequence, the “functional category as compared to the activity of the wild type peptide” value in experiment [1] is “LOF/ROF”. For the sequence “MQRRESCITRSVEEGWGLFY (peptide encoded by random oligo-BR10A1STOP) [C-terminally truncated form of BR10A1 wt]”, the “Reporter Ratio” value in experiment [1] (setting [3]) turned out to be 1.34. Consider “MQRRAACITRSVEEGWGLFYLGP (peptide encoded by random oligo-BR10A1ES) [dual alanine mutant of BR10A1 wt]”, for which the “binding to human c-Myc protein in yeast two hybrid interaction assay” value (shortened to “binding to human c-Myc protein”) in experiment [2] is listed as “found to bind”. For the same sequence, the “Reporter Ratio” value in experiment [1] (setting [3]) worked out at 1.50.

Take “AARRESCITRSVEEGWGLFYLGP (peptide encoded by random oligo-BR10A1MQ) [dual alanine mutant of BR10A1 wt]”: in experiment [1] (setting [3]), the “Reporter Ratio” value turned out to be 1.57. Take “MQRRESCITRSVEEAAGLFYLGP (peptide encoded by random oligo-BR10A1GW) [dual alanine mutant of BR10A1 wt]”: in experiment [1] (setting [4]), the “Reporter Ratio” value is 1.23.

For the sequence “MQAAESCITRSVEEGWGLFYLGP (peptide encoded by random oligo-BR10A1RR) [dual alanine mutant of BR10A1 wt]”, the “Reporter Ratio” value in experiment [1] (first value column (separate experiment with its own WT control)) worked out at 1.32. For the sequence “MQRRESCITRSVAAGWGLFYLGP (peptide encoded by random oligo-BR10A1EE) [dual alanine mutant of BR10A1 wt]”, in experiment [1] (setting [4]), the “Reporter Ratio” value is on record as 1.39. Turning to “MQRRESCIAASVEEGWGLFYLGP (peptide encoded by random oligo-BR10A1TR) [dual alanine mutant of BR10A1 wt]”, in experiment [2], the “binding to human c-Myc protein” value was “found to bind”. Moreover, the “Reporter Ratio” value in experiment [1] (setting [4]) amounted to 1.62. Also, the “functional category as compared to the activity of the wild type peptide” value in experiment [1] is “IOF (An increase of function mutant (IOF) shows a >50% increase in reporter ratio)”. As for “MQRRESCITRSVEEGWGLAALGP (peptide encoded by random oligo-BR10A1FY) [dual alanine mutant of BR10A1 wt]”, the “Reporter Ratio” value in experiment [1] (setting [3]) is on record as 1.34.

In the case of “MQRRESCITRSVEEGWAAFYLGP (peptide encoded by random oligo-BR10A1GL) [dual alanine mutant of BR10A1 wt]”, in experiment [2], the “binding to human c-Myc protein” value was “found to bind”. In experiment [1] (setting [4]), the “Reporter Ratio” value is recorded as 1.44. With “MQRRESAATRSVEEGWGLFYLGP (peptide encoded by random oligo-BR10A1CI) [dual alanine mutant of BR10A1 wt]”, in experiment [2], the “binding to human c-Myc protein” value is “found to bind”. Further, the “Reporter Ratio” value in experiment [1] (setting [4]) was found to be 1.16. Besides, the “functional category as compared to the activity of the wild type peptide” value in experiment [1] is recorded as “ROF (a reduction of function (ROF) of mutant shows a >50% decrease in reporter ratio)”.
